We go through 1 molecule from patent publication US8940798B2, “Compounds useful for treating and/or preventing disease-associated bone loss” (Centre National de al Recherche Scientifique (CNRS), priority 2011, dated 2015).

For series [1], the system named is osteoclasts (OCs). Kind of series: TRAP staining of OCs to ascertain absence of toxicity. The class given is cell-based. The conditions noted are these: 25 μM C21 vs DMSO (not shown). An excerpt:
OCs were fixed and stained for DNA, actin or vinculin or TRAP as described (16,19).
To confirm the essential role of Rac1 activation by Dock5 in the resorption process, it was sought for a chemical inhibitor of Dock5 exchange activity active in cell cultures. The inventors therefore took advantage of a yeast-based assay that they have developed (BLANGY et al., Identification of TRIO-GEFD1 chemical inhibitors using the yeast exchange assay, 2006, Biol Cell 98(9):511-22 and BOUQUIER et al. A cell active chemical GEF inhibitor selectively targets the Trio/RhoG/Rac1 signaling pathway, 2009, Chem Biol 16(6):657-66.). They constructed a yeast strain where Rac1 activation by Dock5 DHR2 induces the expression of the his3 reporter gene (FIG. 5A), which leads to faster yeast growth in Histidine deprived medium (FIG. 5B). A library of 2,640 heterocyclic commercial chemical compounds as described previously was screened (BOUQUIER et al., see above) for molecules able to inhibit growth of Dock5 DHR2-expressing yeasts in Histidine deprived medium without affecting growth in Histidine complemented medium. C21: N-(3,5-dichlorophenyl)benzenesulfonamide was then identified (FIG. 5C). […] In parallel, control OCs grown in the presence of DMSO or 25 μM C21 were stained for TRAP to ascertain C21 was not toxic (not shown).

Series [2] deals with B16F10 melanoma cells. Briefly: Bone metastasis model, B16F10 melanoma cells expressing luciferase in C57B1/6 mice. The class given is in vivo, mouse. The conditions noted are these: 15 mg/d/kg intraperitoneal every day for 12 days; measured at days 7, 10 and 12. An excerpt: The metastatic tumor cells in the bone matrix produce factors that directly or indirectly stimulate osteoclast differentiation and bone resorbing activity. In return, by resorbing it, the osteoclasts liberate growth factors embedded within the bone matrix that will stimulate the proliferation of metastatic cells. […] C21 being an efficient inhibitor of bone resorption, it was further assayed for its ability to slow down metastatic cell proliferation within the bone marrow. B16-F10 cells are derived from a C57B1/6 mouse melanoma and have a strong tropism for the bone. They are classically used as a model for bone metastases.
19 C57B1/6 mice received an injection of 10^5 B16F10 melanoma cells expressing luciferase in the left ventricle, 9 mice received the C21 compound (test group), 15 mg/d/kg solubilized in 100 μl of 5% EtOH and 4% solutol, every days for 12 days, as an intraperitoneal injection, and the other 10 mice (control group) received 100 μl of 5% ethanol/4% solutol vehicle solution.
The proliferation of B16F10 cells was followed by their bioluminescence, measured at days 7, 10 and 12 after injection of the cells (FIG. 20).

In series [3] the test system is DBA1 mice. Kind of series: Arthritis model induced by injecting bovine collagen into DBA1 mice. The class given is in vivo, mouse. On the procedure:
In inflammatory arthritis pathologies such as rheumatoid polyarthritis, the inflammatory reaction in the synovial tissue causes differentiation of osteoclasts that destroy the bone in the area of the joints (see FIG. 8). The arthritis model induced by injecting bovine collagen into DBA1 mice is classically used as a model for this pathology.
Protocol experiment 1: 2 naive DBA1 mice, 6 control mice injected with PBS and 8 test mice receiving the compound C21, 5 mg/d/kg, 5 days per week, as a retro-orbital sinus injection. The mice are distributed in 2 cages, with 1 naive mouse, 3 control mice and 4 test mice per cage. The animals, with the exception of the naive mice, receive an injection of […] of bovine collagen at day 0 and at day 20.
Protocol experiment 2: 4 naive DBA1 mice, 12 control mice injected with PBS and 12 test mice receiving the compound C21, 15 mg/d/kg, 5 days per week, as an intraperitoneal injection. The mice are distributed in 2 cages, with 2 naive mice, 6 control mice and 6 test mice per cage. The animals, with the exception of the naive mice, receive an injection of 100 μg of bovine collagen at day 0 and at day 20.
The arthritic score of each mouse is established twice per week between days 20 and D52, in order to measure swelling and deformation of the joints of the four limbs, an indication of the inflammatory response. The mice are sacrificed at D53, the legs are dissected and the structure of the bone surface of the metatarsi is imaged by micro-tomography in order to show the bone degradation at the area of the joints. The bone volume with respect to the total volume of the joint (BV/TV) decreases with the formation of resorption cavities. The measurements were performed on the joint of the central finger of the right metatarsus in experiment 1 and from the left and the right metatarsus in experiment 2. Anti-collagen IgG levels were measured in the serum of the mice in experiment 2 at day 52.

Turning to `O=S(=O)(Nc1cc(Cl)cc(Cl)c1)c1ccccc1` [C21, N-(3,5-dichlorophenyl)benzenesulfonamide], in series [1], the “Toxicity to OCs by TRAP staining” value is listed as “not toxic”. The “Proliferation of B16F10 cells, bioluminescence in the tibia” value in series [2] is on record as “markedly slowed down”. In addition, the “Correlation between the arthritic score and BV/TV” value in series [3] (experiment 1, 5 mg/d/kg) is on record as “no correlation”. Moreover, the “Mean arthritic score on D52” value in series [3] (experiment 1, 5 mg/d/kg, 5 days per week, retro-orbital sinus injection) came to 3.78±1.23. Further, the “Bone mass regardless of arthritic score” value in series [3] (experiment 1, 5 mg/d/kg, BV/TV relative to arthritic score) is recorded as “maintenance of their bone mass”. For the same molecule, the “Bone mass (BV/TV) by micro-tomography by comparison with the naive mice” value in series [3] (experiment 1, 5 mg/d/kg, metatarsus joint, D53) is on record as “did not have any BV/TV modification”. Further, the “Number of mice of the 8 showing moderate bone degradation” value in series [3] (experiment 1, 5 mg/d/kg, three-dimensional reconstruction of first joint of metatarsus) stood at 1. The “Correlation between the BV/TV and the arthritic score” value in series [3] (experiment 2, 15 mg/d/kg intraperitoneal) is “no correlation”. Further, in series [3] (experiment 2, 15 mg/d/kg intraperitoneal, serum at day 52), the “Levels of anti-collagen IgGs compared with PBS mice” value is “non-significantly different”.
